In patent publication US20030032791A1, “Novel melanocortin-4 receptor sequences and screening assays to identify compounds useful in regulating animal appetite and metabolic rate” (priority 2000, published 2003):
Where two headings read alike, the source gives them in different places. Marks after values point to notes of the source that are not given here. Residues, ends and D or L forms follow the SMILES beside them.

What was measured:
cMC4R [1] = assay: cMC4R
hMC4R [2] = biological target: T1, hMC4R (Homo sapiens, UniProt P32245)
Target sequence in this assay (P32245 whole entry): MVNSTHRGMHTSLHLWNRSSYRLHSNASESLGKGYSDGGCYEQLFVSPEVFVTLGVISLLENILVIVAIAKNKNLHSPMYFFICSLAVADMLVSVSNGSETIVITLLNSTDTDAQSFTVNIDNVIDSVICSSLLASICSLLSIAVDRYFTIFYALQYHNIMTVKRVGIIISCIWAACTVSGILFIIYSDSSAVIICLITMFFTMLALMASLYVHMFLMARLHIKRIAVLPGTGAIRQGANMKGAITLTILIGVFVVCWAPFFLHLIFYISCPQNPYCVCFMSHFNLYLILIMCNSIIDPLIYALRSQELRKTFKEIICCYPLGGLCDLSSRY

hMC3R [3] = biological target: T2, hMC3R (Homo sapiens, UniProt P41968)
Target sequence in this assay (P41968 whole entry): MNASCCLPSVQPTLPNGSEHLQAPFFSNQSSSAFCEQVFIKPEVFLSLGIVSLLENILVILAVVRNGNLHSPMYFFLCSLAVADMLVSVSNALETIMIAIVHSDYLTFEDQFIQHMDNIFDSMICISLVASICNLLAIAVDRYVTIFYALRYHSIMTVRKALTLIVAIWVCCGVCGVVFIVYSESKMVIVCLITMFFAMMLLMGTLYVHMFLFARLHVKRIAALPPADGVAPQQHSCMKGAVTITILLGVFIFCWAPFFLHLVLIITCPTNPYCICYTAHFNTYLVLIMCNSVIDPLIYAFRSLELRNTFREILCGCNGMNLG

hMC4R [4] = biological target: T1, hMC4R; assay: hMC4R; design: expressed in transfected cells; host or cells: HEK293
Target sequence in this assay (P32245 whole entry, looked up): as the sequence (P32245 whole entry) above

hMC3R [5] = biological target: T2, hMC3R; assay: hMC3R; design: expressed in transfected cells; host or cells: HEK293
Target sequence in this assay (P41968 whole entry, looked up): as the sequence (P41968 whole entry) above

canine MC4R (canine) [6] = biological target: canine MC4R (canine)
hMC3R [7] = biological target: T2, hMC3R; remark: listed apart in the source
Target sequence in this assay (P41968 whole entry): as above

cMC4R [8] = assay: FLIPR calcium release assay in HEK293a/cMC4R/Gα15, Gα16 cells; conditions: read-out: EC50, agonist stimulated calcium release; HEK293a/cMC4R/Gα15, Gα16, Fluo-4
canine MC4R (canine) [9] = assay: cell-based or functional assay
Obese Beagle Dogs [10] = assay: Indirect calorimetry following ICV injection in lateral ventricle cannulated dogs; assay type: in vivo, dog; conditions: NDP-MSH 75 mol
Description: (§1) Healthy, (1-3 years of age) male and female beagles (Marshall Farms, North Rose N.Y.) weighing 11-15 kg were employed as test subjects. The animals were surgically implanted with lateral ventricle cannulas using standard techniques. Wilsson-Rahmberg et al., 1998, J. Investigative Surgery, 11:207-214. Cannula placement and patency were confirmed with fluoroscopy. The dogs were housed individually in standard caging meeting or exceeding the USDA regulations (U.S. Department of Agriculture, Animal Welfare, Final Rules. 9 C.F.R. Parts 1-3,1995).
Each subject received a single 50 μl injection in one lateral ventricle (ICV injection) of one of 3 solutions: 30-100 nmol of the non-specific melanocortin (MC) receptor agonist [N1 e^4, D-Phe^7]-α-MSH (hereinafter “NDP-MSH,” Bachem Bioscience Inc., King of Prussia Pa.), 1-2 nmol of the MC3/4 receptor antagonist SHU-9119 (Bachem Bioscience Inc., King of Prussia, Pa.) or vehicle which consisted of artificial cerebrospinal fluid (hereinafter “aCSF,” Harvard Apparatus, Holliston, Mass.). NDP-MSH and SHU-9119 were received as a dry powder and were reconstituted with aCSF to achieve an appropriate concentration for a ^50 μl injection. Following ICV injection, resulting effects on food intake or metabolic rate were determined.
The studies consisted of one group of animals containing five dogs. In study 1, dogs received either NDP-MSH or aCSF on day 0 in a cross-over design with two dogs receiving NDP-MSH first and three dogs receiving aCSF first. Resulting effects on food intake were determined. In study 2, dogs received either SHU-9119 or aCSF on day 0 in a cross-over design with two dogs receiving SHU-9119 first and three dogs receiving aCSF first. Resulting effects on food intake were determined. In study 3, dogs received either NDP-MSH or aCSF on day 0 in a cross-over design with three dogs receiving NDP-MSH first and two dogs receiving aCSF first. Resulting effects on metabolic rate were determined. In study 4, dogs received either SHU-9119 or aCSF on day 0 in a cross-over design with three dogs receiving SHU-9119 first and two dogs receiving aCSF first. Resulting effects on metabolic rate were determined. Each test animal was permitted ad libitum access to water and IAMS […]® (The IAMS Company, Dayton Ohio) dry food each day during the study unless otherwise noted.
Reduction or increase in metabolic rate was measured by standard indirect calorimetry using an open circuit calorimeter (OXYMAX DELUXE@, Columbus Instruments, Columbus Ohio). Dogs were fasted for approximately 18 hours prior to ICV injection. Calorimetry sessions were initiated approximately 2 hours after ICV injection and lasted for 60-90 minutes.

Obese Beagle Dogs [11] = assay: 24 hr food intake following ICV injection in lateral ventricle cannulated dogs; assay type: in vivo, dog; conditions: NDP-MSH 100 nmol
Description: as §1
Each subject received a single 50 μl injection in one lateral ventricle (ICV injection) of one of 3 solutions: 30-100 nmol of the non-specific melanocortin (MC) receptor agonist [N1 e^4, D-Phe^7]-α-MSH (hereinafter “NDP-MSH,” Bachem Bioscience Inc., King of Prussia Pa.), 1-2 nmol of the MC3/4 receptor antagonist SHU-9119 (Bachem Bioscience Inc., King of Prussia, Pa.) or vehicle which consisted of artificial cerebrospinal fluid (hereinafter “aCSF,” Harvard Apparatus, Holliston, Mass.). […] Following ICV injection, resulting effects on food intake or metabolic rate were determined.
The studies consisted of one group of animals containing five dogs. […] Resulting effects on food intake were determined. […] Resulting effects on food intake were determined. […] Resulting effects on metabolic rate were determined. […] Resulting effects on metabolic rate were determined. […]

hMC4R [12] = biological target: T1, hMC4R; remark: listed apart in the source
Target sequence in this assay (P32245 whole entry): as the sequence (P32245 whole entry) above

canine MC4R = canine MC4R (Canis lupus familiaris, UniProt A0A2Z6BEC9); conditions: 1 pM α-MSH
[13] = ICV injection, SHU 9119 2 nmol, about 2 hours after injection, fasted dogs
[14] = versus aCSF control, SHU 9119 2 nmol ICV

Chain of canine MC4R (A0A2Z6BEC9 1-332): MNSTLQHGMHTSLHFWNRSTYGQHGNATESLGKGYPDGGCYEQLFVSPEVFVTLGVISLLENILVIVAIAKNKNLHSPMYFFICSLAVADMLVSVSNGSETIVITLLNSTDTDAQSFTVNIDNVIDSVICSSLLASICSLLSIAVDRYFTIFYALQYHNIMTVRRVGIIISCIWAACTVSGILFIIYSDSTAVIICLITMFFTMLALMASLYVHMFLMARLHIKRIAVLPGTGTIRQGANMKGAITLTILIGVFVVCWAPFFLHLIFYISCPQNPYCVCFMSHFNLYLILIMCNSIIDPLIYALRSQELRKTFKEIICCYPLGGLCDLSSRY
Chain of canine MC4R (canine) (Q0Z8I9 other isoform, or with tags, fused parts or gaps): as the sequence (A0A2Z6BEC9 1-332) above

`N=C(N)NCCC[C@@H]1NC(=O)[C@@H](Cc2ccc3ccccc3c2)NC(=O)[C@H](Cc2c[nH]cn2)NC(=O)[C@H](CCC(=O)O)NC(=O)CCSSC[C@@H](C(=O)N2CCC[C@H]2C(=O)N2CCC[C@H]2C(=O)N[C@@H](CCCCN)C(=O)N[C@@H](CC(=O)O)C(N)=O)NC(=O)CNC(=O)[C@H](Cc2c[nH]c3ccccc23)NC1=O` [JKC363] (HELM PEPTIDE1{[O=C(CCS[*:3])[*:2]].E.H.[O=C([C@@H](Cc1ccc2ccccc2c1)N[*:1])[*:2]].R.W.G.C.P.P.K.D.[am]}$PEPTIDE1,PEPTIDE1,1:R3-8:R3$$$V2.0; C-terminus assumed) showed an IC50 (cMC4R [1]) of 0.971 nM, an IC50 (hMC4R [2]) of 2.11 nM and an IC50 (hMC3R [3]) of 22.7 nM. For the same compound, the IC50 (hMC4R [4]) was 1.31 nM and the IC50 (hMC3R [5]) was 15.1 nM.
JKC363 (peptide) gave an IC50 (canine MC4R (canine) [6]) of 1.27 nM and an IC50 (hMC3R [7]) of 22.8 nM.
MTII gave an EC50 (cMC4R [8]) of 10 nM.
MTII (peptide) showed an IC50 (canine MC4R (canine) [6]) of 0.877 nM and an EC50, agonist stimulated calcium release (FLIPR, HEK293a/cMC4R/Gα15, Gα16 cells) (canine MC4R (canine) [9]) of 10 nM.
For SHU9119, the “Heat Produced, Average” value (Obese Beagle Dogs [10]; [13]) was 13 kcal/h, the “VO2, Average” value (Obese Beagle Dogs [10]; [13]) was 3.6 mL/min/kg and the “Heat Produced, % Change” value (Obese Beagle Dogs [10]; [14]) was −37* %. For the same compound, the “VO2, % Change” value (Obese Beagle Dogs [10]; [14]) was −38* %, the “24 hr Food Intake, Average” value (Obese Beagle Dogs [11]; ICV injection, SHU 9119 2 nmol) was 366 g and the “24 hr Food Intake, % Change” value (Obese Beagle Dogs [11]; [14]) was “+132* %”.
Work on SHU9119 (peptide) yielded an IC50 (hMC4R [12]) of 0.0116 nM, an IC50 (hMC3R [7]) of 0.188 nM and an IC50, antagonist inhibition of calcium release in the presence of 20 nM NDP-MSH agonist (FLIPR) (canine MC4R (canine) [9]) of 2 nM.
α-MSH was tested, and the EC50 (cMC4R [8]) was 55 nM, the “concentration of cAMP” value (canine MC4R; 30 minutes, most concentrated batch of cells (1.5×10^6 cells/ml)) was 13.82 pmol/mL and the “cAMP levels over background” value (canine MC4R; cells at each concentration (0.5, 1.0, 1.5×10^6 cells/ml)) was “significant increase”. The “difference in cAMP versus negative control cells” value (canine MC4R; most concentrated batch of cells) was “almost ten-fold”.
“α-MSH (from UniProt P01189 138-150) (peptide)” gave an EC50, agonist stimulated calcium release (FLIPR, HEK293a/cMC4R/Gα15, Gα16 cells) (canine MC4R (canine) [9]) of 55 nM, a cAMP, fold over negative control cells (canine MC4R (canine) [9]) of 10 fold and a concentration of cAMP in α-MSH treated cells (1.5×10^6 cells/ml) (canine MC4R (canine) [9]) of 13.8 pmol/mL.
